# Source: US9493511B2, “Cyclosporin analogs” (Allergan, Inc., priority 2010, dated 2016)
# Structures can show the parent of a compound that is named as a salt. Where two headings read alike, the source gives them in different places. Square brackets hold non-standard residues; d marks the D form. Peptide text beside a SMILES is read from it. * marks the point of attachment. NMe(2-epi-Bmt) = C/C=C/C[C@@H](C)[C@@H](O)[C@@H](NC)C(=O)O; Ethyl(2-morpholino) = C1CN(CC*)CCO1; Ethyl(2-guanidino) = N=C(N)NCC*; Ala(3-yl) = N[C@@H](C*)C(=O)O; NMeL = CN[C@@H](CC(C)C)C(=O)O; dNMeL = CN[C@H](CC(C)C)C(=O)O; dNMeV = CN[C@@H](C(=O)O)C(C)C; dNMeC = CN[C@H](CS)C(=O)O; dAbu = CC[C@@H](N)C(=O)O; Et2NCH2CH2 = CCN(CC)CC*; CH2CH2COOH = O=C(O)CC*; X3 = c1cc(CC*)ccn1; X5 = CN1CCC(*)CC1; X6 = COC(=O)CC*; X1 = COC(=O)C*; X4 = CC(C)NCC*; X2 = CCCCC*
# How the values were obtained:
# [1] = test system: Spleen cells from C57BL/6 (responder) and BALB/c (stimulator) mice; experiment: Mixed lymphocyte reaction (MLR) assay; assay type: cell-based, mouse
# human recombinant Cyp A = human recombinant Cyp A (Homo sapiens, UniProt P62937); experiment: biochemical
# Chain of human recombinant Cyp A (P62937 whole entry): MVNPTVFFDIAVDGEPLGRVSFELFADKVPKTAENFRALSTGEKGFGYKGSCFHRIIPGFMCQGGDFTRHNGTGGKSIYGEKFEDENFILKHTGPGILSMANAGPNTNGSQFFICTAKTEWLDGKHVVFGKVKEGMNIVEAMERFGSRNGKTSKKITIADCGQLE
# Calcineurin = Calcineurin (Homo sapiens, UniProt P63098+Q08209); experiment: biochemical
SMILES,"IC50 ([1]; mouse spleen cells, five days, 3H-thymidine proliferation, read-out: MLR) [nM]",Ki (human recombinant Cyp A) [nM],IC50 (Calcineurin) [µM],"IC50 ([1]; Mus musculus, read-out: MLR nM) [nM]"
"C/C=C/C[C@@H](C)[C@@H](O)[C@@H]1C(=O)N[C@H](CC)C(=O)N(C)[C@H](CSCCNC(C)C)C(=O)N(C)[C@@H](CC(C)C)C(=O)N[C@H](C(C)C)C(=O)N(C)[C@H](CC(C)C)C(=O)N[C@H](C)C(=O)N[C@@H](C)C(=O)N(C)[C@H](CC(C)C)C(=O)N(C)[C@H](CC(C)C)C(=O)N(C)[C@H](C(C)C)C(=O)N1C [Example 18, [(S)-2-Isopropylaminoethylthiomethyl-Sar]^3 cyclosporin A] (cyclo(A[dNMeL][dNMeL][dNMeV][NMe(2-epi-Bmt)][dAbu][dNMeC](X4)[NMeL][dV][dNMeL][dA]))",3300,5.2,4.6,–
"C/C=C/C[C@@H](C)[C@@H](O)[C@@H]1C(=O)N[C@H](CC)C(=O)N(C)[C@H](CSCCNC(=N)N)C(=O)N(C)[C@@H](CC(C)C)C(=O)N[C@H](C(C)C)C(=O)N(C)[C@H](CC(C)C)C(=O)N[C@H](C)C(=O)N[C@@H](C)C(=O)N(C)[C@H](CC(C)C)C(=O)N(C)[C@H](CC(C)C)C(=O)N(C)[C@H](C(C)C)C(=O)N1C [Example 19, [(S)-2-Guanidinoethyl-1-sulfanylmethyl-Sar]^3 cyclosporin A hydrochloride] (cyclo(A[dNMeL][dNMeL][dNMeV][NMe(2-epi-Bmt)][dAbu][dNMeC](Ethyl(2-guanidino))[NMeL][dV][dNMeL][dA]))",–,6.8,3.2,–
"C/C=C/C[C@@H](C)[C@@H](O)[C@@H]1C(=O)N[C@H](CC)C(=O)N(C)[C@H](CSCCCCC)C(=O)N(C)[C@@H](CC(C)C)C(=O)N[C@H](C(C)C)C(=O)N(C)[C@H](CC(C)C)C(=O)N[C@H](C)C(=O)N[C@@H](C)C(=O)N(C)[C@H](CC(C)C)C(=O)N(C)[C@H](CC(C)C)C(=O)N(C)[C@H](C(C)C)C(=O)N1C [Example 5, [(S)-Pentylthiomethyl-Sar]^3 cyclosporin A] (cyclo(A[dNMeL][dNMeL][dNMeV][NMe(2-epi-Bmt)][dAbu][dNMeC](X2)[NMeL][dV][dNMeL][dA]))",–,2.3,> 10,2700
"C/C=C/C[C@@H](C)[C@@H](O)[C@@H]1C(=O)N[C@H](CC)C(=O)N(C)[C@H](CSCCC(=O)OC)C(=O)N(C)[C@@H](CC(C)C)C(=O)N[C@H](C(C)C)C(=O)N(C)[C@H](CC(C)C)C(=O)N[C@H](C)C(=O)N[C@@H](C)C(=O)N(C)[C@H](CC(C)C)C(=O)N(C)[C@H](CC(C)C)C(=O)N(C)[C@H](C(C)C)C(=O)N1C [Example 12, [(S)-Carbomethoxyethylthiomethyl-Sar]^3 cyclosporin A] (cyclo(A[dNMeL][dNMeL][dNMeV][NMe(2-epi-Bmt)][dAbu][dNMeC](X6)[NMeL][dV][dNMeL][dA]))",–,2.7,9.1,–
"C/C=C/C[C@@H](C)[C@@H](O)[C@@H]1C(=O)N[C@H](CC)C(=O)N(C)[C@H](CSCCc2ccncc2)C(=O)N(C)[C@@H](CC(C)C)C(=O)N[C@H](C(C)C)C(=O)N(C)[C@H](CC(C)C)C(=O)N[C@H](C)C(=O)N[C@@H](C)C(=O)N(C)[C@H](CC(C)C)C(=O)N(C)[C@H](CC(C)C)C(=O)N(C)[C@H](C(C)C)C(=O)N1C [Example 3, [(S)-2-(4-pyridyl)ethylthiomethyl-Sar]^3 cyclosporin A] (cyclo(A[dNMeL][dNMeL][dNMeV][NMe(2-epi-Bmt)][dAbu][dNMeC](X3)[NMeL][dV][dNMeL][dA]))",–,4.3,11.8,2000
"C/C=C/C[C@@H](C)[C@@H](O)[C@@H]1C(=O)N[C@H](CC)C(=O)N(C)[C@H](CSCCC(=O)O)C(=O)N(C)[C@@H](CC(C)C)C(=O)N[C@H](C(C)C)C(=O)N(C)[C@H](CC(C)C)C(=O)N[C@H](C)C(=O)N[C@@H](C)C(=O)N(C)[C@H](CC(C)C)C(=O)N(C)[C@H](CC(C)C)C(=O)N(C)[C@H](C(C)C)C(=O)N1C [Example 17, [(S)-Carbohydroxyethylthiomethyl-Sar]^3 cyclosporin A] (cyclo(A[dNMeL][dNMeL][dNMeV][NMe(2-epi-Bmt)][dAbu][dNMeC](CH2CH2COOH)[NMeL][dV][dNMeL][dA]))",–,2.8,17,–
"C/C=C/C[C@@H](C)[C@@H](O)[C@@H]1C(=O)N[C@H](CC)C(=O)N(C)[C@H](CSC(C)(C)[C@@H](N)C(=O)OC)C(=O)N(C)[C@@H](CC(C)C)C(=O)N[C@H](C(C)C)C(=O)N(C)[C@H](CC(C)C)C(=O)N[C@H](C)C(=O)N[C@@H](C)C(=O)N(C)[C@H](CC(C)C)C(=O)N(C)[C@H](CC(C)C)C(=O)N(C)[C@H](C(C)C)C(=O)N1C [Example 13, [(S)-{(S)-2-Amino-2-carbomethoxy-1,1-dimethyl-ethyl}thiomethyl-Sar]^3 cyclosporin A]",–,9.3,4.1,–
"C/C=C/C[C@@H](C)[C@@H](O)[C@@H]1C(=O)N[C@H](CC)C(=O)N(C)[C@H](CSCC(=O)OC)C(=O)N(C)[C@@H](CC(C)C)C(=O)N[C@H](C(C)C)C(=O)N(C)[C@H](CC(C)C)C(=O)N[C@H](C)C(=O)N[C@@H](C)C(=O)N(C)[C@H](CC(C)C)C(=O)N(C)[C@H](CC(C)C)C(=O)N(C)[C@H](C(C)C)C(=O)N1C [Example 11, [(S)-Carbomethoxymethylthiomethyl-Sar]^3 cyclosporin A] (cyclo(A[dNMeL][dNMeL][dNMeV][NMe(2-epi-Bmt)][dAbu][dNMeC](X1)[NMeL][dV][dNMeL][dA]))",–,2.1,3.9,19500
"C/C=C/C[C@@H](C)[C@@H](O)[C@@H]1C(=O)N[C@H](CC)C(=O)N(C)[C@H](CSCCN(CC)CC)C(=O)N(C)[C@@H](CC(C)C)C(=O)N[C@H](C(C)C)C(=O)N(C)[C@H](CC(C)C)C(=O)N[C@H](C)C(=O)N[C@@H](C)C(=O)N(C)[C@H](CC(C)C)C(=O)N(C)[C@H](CC(C)C)C(=O)N(C)[C@H](C(C)C)C(=O)N1C [Example 2, [(S)-2-Diethylaminoethylthiomethyl-Sar]^3 cyclosporin A] (cyclo(A[dNMeL][dNMeL][dNMeV][NMe(2-epi-Bmt)][dAbu][dNMeC](Et2NCH2CH2)[NMeL][dV][dNMeL][dA]))",–,2.4,3.6,3500
"C/C=C/C[C@@H](C)[C@@H](O)[C@@H]1C(=O)N[C@H](CC)C(=O)N(C)[C@H](CSC(C)(C)[C@@H](N)C(=O)O)C(=O)N(C)[C@@H](CC(C)C)C(=O)N[C@H](C(C)C)C(=O)N(C)[C@H](CC(C)C)C(=O)N[C@H](C)C(=O)N[C@@H](C)C(=O)N(C)[C@H](CC(C)C)C(=O)N(C)[C@H](CC(C)C)C(=O)N(C)[C@H](C(C)C)C(=O)N1C [Example 16, [(S)-{(S)-2-Amino-2-carbohydroxy-1,1-dimethyl-ethyl}thiomethyl-Sar]^3 cyclosporin A]",–,5.8,2.7,–
C/C=C/C[C@@H](C)[C@@H](O)[C@@H]1C(=O)N[C@H](CC)C(=O)N(C)[C@H](CSC2CCN(C)CC2)C(=O)N(C)[C@@H](CC(C)C)C(=O)N[C@H](C(C)C)C(=O)N(C)[C@H](CC(C)C)C(=O)N[C@H](C)C(=O)N[C@@H](C)C(=O)N(C)[C@H](CC(C)C)C(=O)N(C)[C@H](CC(C)C)C(=O)N(C)[C@H](C(C)C)C(=O)N1C [Example 9] (cyclo(A[dNMeL][dNMeL][dNMeV][NMe(2-epi-Bmt)][dAbu][dNMeC](X5)[NMeL][dV][dNMeL][dA])),–,4.8,3.3,3800
"C/C=C/C[C@@H](C)[C@@H](O)[C@@H]1C(=O)N[C@H](CC)C(=O)N(C)[C@H](CSC)C(=O)N(C)[C@@H](CC(C)C)C(=O)N[C@H](C(C)C)C(=O)N(C)[C@H](CC(C)C)C(=O)N[C@H](C)C(=O)N[C@@H](C)C(=O)N(C)[C@H](CC(C)C)C(=O)N(C)[C@H](CC(C)C)C(=O)N(C)[C@H](C(C)C)C(=O)N1C [Example 4, [(S)-Methylthiomethyl-Sar]^3 cyclosporin A] (cyclo(A[dNMeL][dNMeL][dNMeV][NMe(2-epi-Bmt)][dAbu][dNMeC](Me)[NMeL][dV][dNMeL][dA]))",–,6.9,2.2,–
"C/C=C/C[C@@H](C)[C@@H](O)[C@@H]1C(=O)N[C@H](CC)C(=O)N(C)[C@H](CSCCN2CCOCC2)C(=O)N(C)[C@@H](CC(C)C)C(=O)N[C@H](C(C)C)C(=O)N(C)[C@H](CC(C)C)C(=O)N[C@H](C)C(=O)N[C@@H](C)C(=O)N(C)[C@H](CC(C)C)C(=O)N(C)[C@H](CC(C)C)C(=O)N(C)[C@H](C(C)C)C(=O)N1C [Example 10, [(S)-2-(Morpholino)ethylthiomethyl-Sar]^3 cyclosporin A] (cyclo(A[dNMeL][dNMeL][dNMeV][NMe(2-epi-Bmt)][dAbu][dNMeC](Ethyl(2-morpholino))[NMeL][dV][dNMeL][dA]))",–,3.9,4.2,–
"C/C=C/C[C@@H](C)[C@@H](O)[C@@H]1C(=O)N[C@H](CC)C(=O)N(C)[C@H](CSC[C@H](N)C(=O)O)C(=O)N(C)[C@@H](CC(C)C)C(=O)N[C@H](C(C)C)C(=O)N(C)[C@H](CC(C)C)C(=O)N[C@H](C)C(=O)N[C@@H](C)C(=O)N(C)[C@H](CC(C)C)C(=O)N(C)[C@H](CC(C)C)C(=O)N(C)[C@H](C(C)C)C(=O)N1C [Example 14, [(S)-{(R)-2-Amino-2-carbohydroxy-ethyl}thiomethyl-Sar]^3 cyclosporin A] (cyclo(A[dNMeL][dNMeL][dNMeV][NMe(2-epi-Bmt)][dAbu][dNMeC](Ala(3-yl))[NMeL][dV][dNMeL][dA]))",–,–,7.4,–
